Test results taken from US8299048B2, “Hexahydrocyclopentyl[f]indazole sulfonamides and derivatives thereof as selective glucocorticoid receptor modulators” (Merck Sharp & Dohme Corp., priority 2008, dated 2012).

Each molecule was assayed against T1, glucocorticoid receptor (Homo sapiens, UniProt P04150) (assay: Ligand binding assay (GR BIND)).
T1 construct: endogenous in cells
T1 sequence (P04150 1-777): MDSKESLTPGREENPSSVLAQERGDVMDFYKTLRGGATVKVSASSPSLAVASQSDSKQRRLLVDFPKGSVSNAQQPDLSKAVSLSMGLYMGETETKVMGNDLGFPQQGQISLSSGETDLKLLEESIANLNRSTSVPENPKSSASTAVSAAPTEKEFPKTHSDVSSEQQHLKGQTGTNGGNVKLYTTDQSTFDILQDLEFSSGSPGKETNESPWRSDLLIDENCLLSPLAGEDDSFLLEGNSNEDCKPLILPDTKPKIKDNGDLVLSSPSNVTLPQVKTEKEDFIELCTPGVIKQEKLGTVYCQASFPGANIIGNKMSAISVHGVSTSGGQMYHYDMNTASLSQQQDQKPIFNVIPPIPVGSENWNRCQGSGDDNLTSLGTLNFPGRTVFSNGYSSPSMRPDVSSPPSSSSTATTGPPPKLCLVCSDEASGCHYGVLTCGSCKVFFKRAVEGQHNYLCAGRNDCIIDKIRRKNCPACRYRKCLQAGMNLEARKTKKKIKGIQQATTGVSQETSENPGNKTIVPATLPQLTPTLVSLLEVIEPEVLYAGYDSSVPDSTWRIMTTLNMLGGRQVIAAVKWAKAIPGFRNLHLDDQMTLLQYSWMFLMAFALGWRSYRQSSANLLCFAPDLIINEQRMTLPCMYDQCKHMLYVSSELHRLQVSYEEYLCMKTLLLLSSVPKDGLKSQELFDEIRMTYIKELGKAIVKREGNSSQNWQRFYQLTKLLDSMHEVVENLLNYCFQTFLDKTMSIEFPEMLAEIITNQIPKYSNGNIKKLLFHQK
Method in brief: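 Cytosol from freeze–thawed cells in TEGM (pH 7.2, 10 mM molybdate) was incubated overnight at 4 °C with compound and [3H]-dexamethasone trace (added as 6 nM solution), 2% EtOH final. Bound ligand was captured on hydroxylapatite, filtered, washed and scintillation counted. Values were calculated with dexamethasone as reference.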

For `C[C@]12Cc3cnn(-c4ccc(F)cc4)c3C=C1CC[C@@H]2CNS(=O)(=O)Cc1cccnc1` [Example 169, N-{[(4αR,5S)-1-(4-fluorophenyl)-4α-methyl-1,4,4α,5,6,7-hexahydrocyclopenta[f]indazol-5-yl]methyl}-1-pyridin-3-ylmethanesulfonamide], which Ki is on record?
Its Ki is 20.9 nM.

Which Ki does the source give for `Cc1noc(C)c1S(=O)(=O)N(CC1CCCO1)C[C@H]1CCC2=Cc3c(cnn3-c3ccc(F)cc3)C[C@@]21C` (stereo partly drawn) [Example 170, N-{[(4αR,5S)-1-(4-fluorophenyl)-4α-methyl-1,4,4α,5,6,7-hexahydrocyclopenta[f]indazol-5-yl]methyl}-3,5-dimethyl-N-(tetrahydrofuran-2-ylmethyl)isoxazole-4-sulfonamide] here?
The Ki was 2.6 nM.

`CCS(=O)(=O)N(CCOC)C[C@H]1CCC2=Cc3c(cnn3-c3ccc(F)cc3)C[C@@]21C` [Example 171, N-{[(4αR,5S)-1-(4-fluorophenyl)-4α-methyl-1,4,4α,5,6,7-hexahydrocyclopenta[f]indazol-5-yl]methyl}-N-(2-methoxyethyl)ethanesulfonamide] was tested. Which Ki did it give?
Its Ki is 7 nM.

With `COCCN(C[C@H]1CCC2=Cc3c(cnn3-c3ccc(F)cc3)C[C@@]21C)S(=O)(=O)c1cn(C)nc1C(F)(F)F` [Example 172, N-{[(4αR,5S)-1-(4-fluorophenyl)-4α-methyl-1,4,4α,5,6,7-hexahydrocyclopenta[f]indazol-5-yl]methyl}-N-(2-methoxyethyl)-1-methyl-3-(trifluoromethyl)-1H-pyrazole-4-sulfonamide] as the molecule, how does the Ki read?
Its Ki is 0.6 nM.

`COCCN(C[C@H]1CCC2=Cc3c(cnn3-c3ccc(F)cc3)C[C@@]21C)S(=O)(=O)c1c(C)noc1C` [Example 173, N-{[(4αR,5S)-1-(4-fluorophenyl)-4α-methyl-1,4,4α,5,6,7-hexahydrocyclopenta[f]indazol-5-yl]methyl}-N-(2-methoxyethyl)-3,5-dimethylisoxazole-4-sulfonamide] was tested. Which Ki did it give?
The Ki was 1.3 nM.

`CCS(=O)(=O)N(CC1CCCO1)C[C@H]1CCC2=Cc3c(cnn3-c3ccc(F)cc3)C[C@@]21C` (stereo partly drawn) [Example 174, N-{[(4αR,5S)-1-(4-fluorophenyl)-4α-methyl-1,4,4α,5,6,7-hexahydrocyclopenta[f]indazol-5-yl]methyl}-N-(tetrahydrofuran-2-ylmethyl)ethanesulfonamide] was tested. Which Ki did it give?
The Ki was 3.4 nM.

`Cn1cc(S(=O)(=O)N(CC2CCCO2)C[C@H]2CCC3=Cc4c(cnn4-c4ccc(F)cc4)C[C@@]32C)c(C(F)(F)F)n1` (stereo partly drawn) [Example 175, N-{[(4αR,5S)-1-(4-fluorophenyl)-4α-methyl-1,4,4α,5,6,7-hexahydrocyclopenta[f]indazol-5-yl]methyl}-1-methyl-N-(tetrahydrofuran-2-ylmethyl)-3-(trifluoromethyl)-1H-pyrazole-4-sulfonamide] was tested. Which Ki did it give?
Its Ki is 1 nM.

`Cc1noc(C)c1S(=O)(=O)N(C)C[C@H]1CCC2=Cc3c(cnn3-c3ccc(F)cc3)C[C@@]21C` [Example 176, N-{[(4αR,5S)-1-(4-fluorophenyl)-4α-methyl-1,4,4α,5,6,7-hexahydrocyclopenta[f]indazol-5-yl]methyl}-N,3,5-trimethylisoxazole-4-sulfonamide] was tested. Which Ki did it give?
The Ki was 1.3 nM.

Which Ki does the source give for `CN(C[C@H]1CCC2=Cc3c(cnn3-c3ccc(F)cc3)C[C@@]21C)S(=O)(=O)CC(F)(F)F` [Example 177, 2,2,2-trifluoro-N-{[(4αR,5S)-1-(4-fluorophenyl)-4α-methyl-1,4,4α,5,6,7-hexahydrocyclopenta[f]indazol-5-yl]methyl}-N-methylethanesulfonamide] here?
Its Ki is 1.6 nM.

`CCN(C[C@H]1CCC2=Cc3c(cnn3-c3ccc(F)cc3)C[C@@]21C)S(=O)(=O)c1c(C)noc1C` [Example 178, N-ethyl-N-{[(4αR,5S)-1-(4-fluorophenyl)-4α-methyl-1,4,4α,5,6,7-hexahydrocyclopenta[f]indazol-5-yl]methyl}-3,5-dimethylisoxazole-4-sulfonamide] was tested. Which Ki did it give?
The Ki was 1.2 nM.

For `CCN(C[C@H]1CCC2=Cc3c(cnn3-c3ccc(F)cc3)C[C@@]21C)S(=O)(=O)CC(F)(F)F` [Example 179, N-ethyl-2,2,2-trifluoro-N-{[(4αR,5S)-1-(4-fluorophenyl)-4α-methyl-1,4,4α,5,6,7-hexahydrocyclopenta[f]indazol-5-yl]methyl}ethanesulfonamide], which Ki is on record?
Its Ki is 1.2 nM.

Which Ki does the source give for `COC(=O)c1ccccc1CS(=O)(=O)N(C[C@H]1CCC2=Cc3c(cnn3-c3ccc(F)cc3)C[C@@]21C)C[C@@H](C)O` [Example 180, methyl 2-[({{[(4αR,5S)-1-(4-fluorophenyl)-4α-methyl-1,4,4α,5,6,7-hexahydrocyclopenta[f]indazol-5-yl]methyl}[(2R)-2-hydroxypropyl]amino}sulfonyl)methyl]benzoatee] here?
The Ki was 1.8 nM.

`COC(=O)c1ccccc1CS(=O)(=O)N(C[C@H]1CCC2=Cc3c(cnn3-c3ccc(F)cc3)C[C@@]21C)C[C@H](C)O` [Example 181, methyl 2-[({{[(4αR,5S)-1-(4-fluorophenyl)-4α-methyl-1,4,4α,5,6,7-hexahydrocyclopenta[f]indazol-5-yl]methyl}[(2S)-2-hydroxypropyl]amino}sulfonyl)methyl]benzoate] was tested. Which Ki did it give?
The Ki was 2.8 nM.

For `C[C@@H](O)CN(C[C@H]1CCC2=Cc3c(cnn3-c3ccc(F)cc3)C[C@@]21C)S(=O)(=O)Cc1ccccc1C(=O)O` [Example 182, 2-[({{[(4αR,5S)-1-(4-fluorophenyl)-4α-methyl-1,4,4α,5,6,7-hexahydrocyclopenta[f]indazol-5-yl]methyl}[(2R)-2-hydroxypropyl]amino}sulfonyl)methyl]benzoic acid], which Ki is on record?
The Ki was 93.9 nM.

How did the Ki turn out when `C[C@H](O)CN(C[C@H]1CCC2=Cc3c(cnn3-c3ccc(F)cc3)C[C@@]21C)S(=O)(=O)Cc1ccccc1C(=O)O` [Example 183, 2-[({{[(4αR,5S)-1-(4-fluorophenyl)-4α-methyl-1,4,4α,5,6,7-hexahydrocyclopenta[f]indazol-5-yl]methyl}[(2S)-2-hydroxypropyl]amino}sulfonyl)methyl]benzoic acid] was run?
The Ki was 64 nM.

`C[C@@H](O)CN(C[C@H]1CCC2=Cc3c(cnn3-c3ccc(F)cc3)C[C@@]21C)S(=O)(=O)Cc1ccccc1C(N)=O` [Example 184, 2-[({{[(4αR,5S)-1-(4-fluorophenyl)-4α-methyl-1,4,4α,5,6,7-hexahydrocyclopenta[f]indazol-5-yl]methyl}[(2R)-2-hydroxypropyl]amino}sulfonyl)methyl]benzamide] was tested. Which Ki did it give?
The Ki was 9.6 nM.

Which Ki does the source give for `C[C@H](O)CN(C[C@H]1CCC2=Cc3c(cnn3-c3ccc(F)cc3)C[C@@]21C)S(=O)(=O)Cc1ccccc1C(N)=O` [Example 185, 2-[({{[(4αR,5S)-1-(4-fluorophenyl)-4α-methyl-1,4,4α,5,6,7-hexahydrocyclopenta[f]indazol-5-yl]methyl}[(2S)-2-hydroxypropyl]amino}sulfonyl)methyl]benzamide] here?
The Ki was 13.1 nM.

How did the Ki turn out when `COC(=O)c1ccccc1S(=O)(=O)N(C[C@H]1CCC2=Cc3c(cnn3-c3ccc(F)cc3)C[C@@]21C)C[C@@H](C)O` [Example 186, methyl 2-({{[(4αR,5S)-1-(4-fluorophenyl)-4α-methyl-1,4,4α,5,6,7-hexahydrocyclopenta[f]indazol-5-yl]methyl}[(2R)-2-hydroxypropyl]amino}sulfonyl)benzoate] was run?
The Ki was 1.9 nM.

`COC(=O)c1ccccc1S(=O)(=O)N(C[C@H]1CCC2=Cc3c(cnn3-c3ccc(F)cc3)C[C@@]21C)C[C@H](C)O` [Example 187, methyl 2-({{[(4αR,5S)-1-(4-fluorophenyl)-4α-methyl-1,4,4α,5,6,7-hexahydrocyclopenta[f]indazol-5-yl]methyl}[(2S)-2-hydroxypropyl]amino}sulfonyl)benzoate] was tested. Which Ki did it give?
Its Ki is 2.5 nM.
